Reference: PMC3340383, “Synthesis and Evaluation of a Series of 2-Substituted-5-Thiopropylpiperazine (Piperidine)-1,3,4-Oxadiazoles Derivatives as Atypical Antipsychotics” (PLoS ONE, 2012)
Like-named read-outs stand apart in the source and are kept apart here. Values belong to the compound of their own block, whether it stands above or below them.

Key:
[1] = biological target: T1, serotonin 5-HT1A receptor (Rattus norvegicus, UniProt P19327); assay: 5-HT1A binding assay ([3H]8-OH-DPAT, rat brain cortex); details: read-out: Ki±SEM, 5HT1A
T1 construct: Rat cerebral cortex was homogenized in 20 volumes of ice-cold Tris-HCl buffer; from tissue; host or cells: rat brain (cerebral) cortex
T1 sequence (P19327 1-422): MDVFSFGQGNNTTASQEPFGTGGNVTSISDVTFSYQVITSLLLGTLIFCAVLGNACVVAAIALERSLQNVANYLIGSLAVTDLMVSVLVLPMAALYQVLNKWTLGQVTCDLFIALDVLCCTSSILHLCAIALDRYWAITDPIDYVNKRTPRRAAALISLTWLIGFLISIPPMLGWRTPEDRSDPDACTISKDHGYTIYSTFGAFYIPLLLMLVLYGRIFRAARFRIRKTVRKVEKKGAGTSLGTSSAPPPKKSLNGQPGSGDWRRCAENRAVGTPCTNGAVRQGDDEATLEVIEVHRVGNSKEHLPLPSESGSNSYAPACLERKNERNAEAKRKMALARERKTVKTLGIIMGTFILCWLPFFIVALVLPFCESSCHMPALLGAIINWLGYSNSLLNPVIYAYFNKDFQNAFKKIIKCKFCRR
Protocol: (§1) All the new compounds were dissolved in 5% DMSO. The following specific radioligands and tissue sources were used: (a) serotonin 5-HT1A receptor, [^3H]8-OH-DPAT, rat brain cortex; (b) serotonin 5-HT2A receptor, [^3H]ketanserin, rat brain cortex; (c) serotonin 5-HT2C receptor, [^3H]mesulergine, rat brain cortex; (d) dopamine D2 receptor, [^3H]spiperone, rat striatum; (e) dopamine D3 receptor, [^3H]spiperone, rat olfactory tubercle (f) histamine H1 receptor, [^3H] pyrilamine, guinea pig cerebellum.
(§2) Total binding was determined in the absence of no-specific binding and compounds. Specific binding was determined in the presence of compounds. Non-specific binding was determined as the difference between total and specific binding.
(§3) Percentage of inhibition (%) = (total binding − specific binding)×100%/(total binding − nonspecific binding).
(§4) Ki values were calculated based on the Cheng and Prussoff equation: Ki = IC50/(1+C/Kd) where C represents the concentration of the hot ligand used and Kd its receptor dissociation constant were calculated for each labeled ligand. Mean Ki values and SEM were reported for at least three independent experiments.
Rat cerebral cortex was homogenized in 20 volumes of ice-cold Tris-HCl buffer (50 mM, pH 7.7) using an ULTRA TURAX homogeniser, and was then centrifuged at 32000 g for 10 min. […] The final pellet was resuspended in Tris-HCl buffer containing 10 µM Pargyline, 4 mM CaCl2 and 0.1% ascorbic acid.
Total binding each assay tube was added 900 µL of the tissue suspension, 50 µL of 0.5 nM [^3H]8-OH-DPAT (187.4 Ci/mmol, Perkin Elmer Life Sciences, Boston, MA, USA), 50 µL Tris-HCl buffer containing 10 µM Pargyline, 4 mM CaCl2 and 0.1% ascorbic acid.
Non-specific binding each assay tube was added 900 µL of the tissue suspension, 50 µL of 0.5 nM [^3H]8-OH-DPAT, 50 µL of 10 µM serotonin.
Specific binding each assay tube was added 900 µL of the tissue suspension, 50 µL of 0.5 nM [^3H]8-OH-DPAT, 50 µL of new compounds or reference drug.
(§5) The incubation was followed by a rapid vacuum filtration through Whatman GF/B glass filters, and the filtrates were washed twice with 5mL cold buffer and transferred to scintillation vials. Scintillation fluid (3.0 mL) was added and the radioactivity bound was measured using a Beckman LS 6500 liquid scintillation counter.

[2] = biological target: T2, serotonin 5-HT2A receptor (Rattus norvegicus, UniProt P14842); assay: 5-HT2A binding assay ([3H]ketanserin, rat brain cortex); details: read-out: Ki±SEM, 5HT2A
T2 construct: Rat cerebral cortex was homogenized in 20 volumes of ice-cold Tris-HCl buffer; from tissue; host or cells: rat brain (cerebral) cortex
T2 sequence (P14842 whole entry): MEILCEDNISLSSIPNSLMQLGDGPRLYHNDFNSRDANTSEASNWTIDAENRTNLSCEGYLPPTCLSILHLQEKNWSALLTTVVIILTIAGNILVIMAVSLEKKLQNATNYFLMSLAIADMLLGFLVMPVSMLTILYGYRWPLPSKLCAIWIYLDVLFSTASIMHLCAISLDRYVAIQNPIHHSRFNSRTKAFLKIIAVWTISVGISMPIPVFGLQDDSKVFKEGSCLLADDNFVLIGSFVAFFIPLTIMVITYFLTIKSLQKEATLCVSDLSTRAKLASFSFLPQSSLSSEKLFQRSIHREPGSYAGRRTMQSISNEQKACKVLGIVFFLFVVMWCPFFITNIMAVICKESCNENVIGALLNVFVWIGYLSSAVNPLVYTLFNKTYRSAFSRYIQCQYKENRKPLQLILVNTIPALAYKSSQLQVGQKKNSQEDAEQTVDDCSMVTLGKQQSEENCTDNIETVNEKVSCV
Protocol: as §1, §2, §3, §4
Rat cerebral cortex was homogenized in 20 volumes of ice-cold Tris-HCl buffer (50 mM, pH 7.7) using an ULTRA TURAX homogeniser, and centrifuged at 32000 g for 20 min. The resulting pellet was resuspended in the same quantity of the buffer centrifuged for 20 min. The final pellet was resuspended in 50 volumes of the Tris-HCl buffer.
Total binding each assay tube was added 900 µL of the tissue suspension, 50 µL of 0.6 nM [^3H]ketanserin (60.0 Ci/mmol, Perkin Elmer Life Sciences, Boston, MA, USA), 50 µL Tris-HCl buffer.
Non-specific binding each assay tube was added 900 µL of the tissue suspension, 50 µL of 0.6 nM [^3H]ketanserin, 50 µL of 10 µM methisergide.
Specific binding each assay tube was added 900 µL of the tissue suspension, 50 µL of 0.6 nM [^3H]ketanserin, […] of new compounds or reference drug.
as §5, with “5 mL” for “5mL”

histamine H1 receptor = biological target: T3, histamine H1 receptor (Cavia porcellus, UniProt P31389); assay: Histamine H1 binding assay ([3H]pyrilamine, guinea pig cerebellum); details: read-out: Ki±SEM, H1
T3 construct: Guinea pig cerebellum was homogenized in 20 volumes of ice-cold 50 mM phosphate buffer; from tissue; host or cells: guinea pig cerebellum
T3 sequence (P31389 whole entry): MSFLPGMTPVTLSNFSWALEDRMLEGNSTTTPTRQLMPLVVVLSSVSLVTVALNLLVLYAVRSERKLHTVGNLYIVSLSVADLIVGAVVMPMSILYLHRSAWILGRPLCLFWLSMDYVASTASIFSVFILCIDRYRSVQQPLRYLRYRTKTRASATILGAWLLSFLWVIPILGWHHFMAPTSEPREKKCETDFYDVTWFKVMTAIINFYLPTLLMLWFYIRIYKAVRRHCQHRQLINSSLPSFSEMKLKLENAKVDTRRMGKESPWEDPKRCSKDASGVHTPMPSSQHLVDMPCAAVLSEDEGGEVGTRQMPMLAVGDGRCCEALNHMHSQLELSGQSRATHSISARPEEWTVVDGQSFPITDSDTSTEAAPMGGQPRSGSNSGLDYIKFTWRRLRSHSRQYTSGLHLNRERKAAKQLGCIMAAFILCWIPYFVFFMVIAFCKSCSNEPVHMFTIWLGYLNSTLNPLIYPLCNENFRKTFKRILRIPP
Protocol: as §1, §2, §3, §4
as §5, with “5 mL” for “5mL”

dopamine D2 receptor = biological target: T4, dopamine D2 receptor (Rattus norvegicus, UniProt P61169); assay: D2 dopaminergic binding assay ([3H]spiperone, rat striatum); details: read-out: Ki±SEM, D2
T4 construct: Rat striatum was homogenized in 20 volumes of ice-cold 50 mM Tris-HCl buffer; from tissue; host or cells: rat striatum
T4 sequence (P61169 whole entry): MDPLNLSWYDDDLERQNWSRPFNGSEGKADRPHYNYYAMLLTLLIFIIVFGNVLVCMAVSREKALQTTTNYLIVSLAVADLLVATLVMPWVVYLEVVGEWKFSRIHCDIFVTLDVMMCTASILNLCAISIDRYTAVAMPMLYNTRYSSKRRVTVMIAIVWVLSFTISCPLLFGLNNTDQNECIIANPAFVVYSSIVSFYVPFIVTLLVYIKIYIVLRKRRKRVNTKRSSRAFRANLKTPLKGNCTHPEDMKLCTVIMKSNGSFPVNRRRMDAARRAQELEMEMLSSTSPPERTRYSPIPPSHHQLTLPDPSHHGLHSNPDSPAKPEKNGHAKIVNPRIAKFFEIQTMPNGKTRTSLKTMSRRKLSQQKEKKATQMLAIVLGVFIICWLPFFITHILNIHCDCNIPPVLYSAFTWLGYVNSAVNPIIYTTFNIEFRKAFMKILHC
Protocol: as §1, §2, §3, §4
Rat striatum was homogenized in 20 volumes of ice-cold 50 mM Tris-HCl buffer (pH 7.7) using an ULTRA TURAX homogeniser, and centrifuged twice for 10 min at 48,000 g with resuspension of the pellet in fresh buffer. The final pellet was resuspended in 50 mM ice-cold Tris-HCl containing 120 mM NaCl, 5 mM KCl, 2 mM CaCl2, 1 mM MgCl2, 0.1% ascorbic acid and 5 µM pargyline.
Total binding each assay tube was added 900 µL of the tissue suspension, 50 µL of 0.5 nM [^3H]spiperone (16.2 Ci/mmol; Perkin Elmer Life Sciences, Boston, MA, USA), 50 µL Tris-HCl buffer containing 120 mM NaCl, 5 mM KCl, 2 mM CaCl2, 1 mM MgCl2, 0.1% ascorbic acid and 5 µM pargyline.
Non-specific binding each assay tube was added 900 µL of the tissue suspension, 50 µL of 0.5 nM [^3H]spiperone, 50 µL of 10 µM (+)-butaclamol.
Specific binding each assay tube was added 900 µL of the tissue suspension, 50 µL of 0.5 nM [^3H]spiperone, 50 µL of new compounds or reference drug.
as §5, with “5 mL” for “5mL”

dopamine D3 receptor = biological target: T5, dopamine D3 receptor (Rattus norvegicus, UniProt P19020); assay: D3 dopaminergic binding assay ([3H]spiperone, rat olfactory tubercle); details: mean of three experiments, read-out: Ki±SEM, D3
T5 construct: Rat olfactory tubercle was homogenized in 20 volumes of ice-cold 50 mM Hepes Na; from tissue; host or cells: rat olfactory tubercle
T5 sequence (P19020 whole entry): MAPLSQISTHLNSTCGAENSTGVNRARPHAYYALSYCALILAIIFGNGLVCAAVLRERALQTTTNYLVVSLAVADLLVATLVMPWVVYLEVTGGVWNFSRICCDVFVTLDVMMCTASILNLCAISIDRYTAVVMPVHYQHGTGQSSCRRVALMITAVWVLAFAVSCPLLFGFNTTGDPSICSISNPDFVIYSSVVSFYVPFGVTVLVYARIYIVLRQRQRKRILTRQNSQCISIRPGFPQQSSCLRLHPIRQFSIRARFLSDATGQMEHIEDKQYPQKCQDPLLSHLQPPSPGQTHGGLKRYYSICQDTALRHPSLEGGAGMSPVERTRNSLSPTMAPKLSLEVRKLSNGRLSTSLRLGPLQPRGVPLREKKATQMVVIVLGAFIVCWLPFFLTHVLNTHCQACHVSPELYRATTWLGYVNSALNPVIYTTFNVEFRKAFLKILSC
Protocol: as §1, §2, §3, §4
as §5, with “5 mL” for “5mL”

[3] = biological target: T6, serotonin 5-HT2C receptor (Rattus norvegicus, UniProt P08909); assay: 5-HT2C binding assay ([3H]mesulergine, rat brain cortex); details: mean of three experiments, read-out: Ki±SEM, 5HT2C
T6 construct: Rat cerebral cortex was homogenized in 20 volumes of ice-cold Tris-HCl buffer; from tissue; host or cells: rat brain (cerebral) cortex
T6 sequence (P08909 33-460): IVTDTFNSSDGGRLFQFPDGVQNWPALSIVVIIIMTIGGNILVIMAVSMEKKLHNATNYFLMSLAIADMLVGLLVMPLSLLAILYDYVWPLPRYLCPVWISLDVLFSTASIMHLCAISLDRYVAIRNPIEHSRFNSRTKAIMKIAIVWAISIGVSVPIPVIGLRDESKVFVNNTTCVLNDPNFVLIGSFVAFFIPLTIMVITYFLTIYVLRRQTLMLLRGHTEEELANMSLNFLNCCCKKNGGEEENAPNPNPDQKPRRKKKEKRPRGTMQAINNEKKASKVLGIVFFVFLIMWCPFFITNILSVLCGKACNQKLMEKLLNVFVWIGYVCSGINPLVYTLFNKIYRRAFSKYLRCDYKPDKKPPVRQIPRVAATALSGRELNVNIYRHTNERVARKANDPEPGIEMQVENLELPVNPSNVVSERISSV
Protocol: as §1
Total binding was determined in the absence of no-specific binding and compounds. Specific binding was determined in the presence of compounds. Non-specific binding was determined as the difference between total and specific binding. […]
Ki values were calculated based on the Cheng and Prussoff equation: Ki = IC50/(1+C/Kd) where C represents the concentration of the hot ligand used and Kd its receptor dissociation constant were calculated for each labeled ligand. […]
The resulting pellet was resuspended in the same quantity of the buffer centrifuged for 20 min. […]
as §5, with “5 mL” for “5mL”

[4] = test system: apomorphine-induced climbing behavior in mice; assay: Apomorphine-induced climbing; format: in vivo; details: Mus musculus; mice, po; 95% confidence limits in parentheses; read-out: Apomorphine-induced climbing ED50 (A)
Protocol: . […] . Animals were then challenged at 30 minutes post-injection with 1.0 mg/kg of the apomorphine in 0.9% NaCl+0.1% ascorbic acid, placed in cylindrical wire cages (12 cm in diameter, 14 cm in height), and observed for climbing behavior at 10, 20 and 30 min post dose. The climbing behaviour was scored as follows: 3–4 paws on the cage floor = 0 score; 2 and 3 paws on the cage = 1 score; 4 paws on the cage = 2 score.

[5] = test system: MK-801-induced hyperactivity in mice; assay: MK-801-induced hyperactivity; details: Mus musculus, po, read-out: MK-801-induced hyperactivity ED50 (B)
in vivo = details: Kun Ming (KM), mouse, po

Ki [1]: 6.8 ± 0.7 nM | Ki [2]: 0.22 ± 0.02 nM | Ki (histamine H1 receptor): 13.2 ± 3.4 nM | Ki (dopamine D2 receptor): 14.8 ± 1.8 nM | Ki (dopamine D3 receptor): 219 ± 35.2 nM
Structure (SMILES): COc1ccc(-c2nnc(SCCCN3CCC(c4noc5cc(F)ccc45)CC3)o2)cc1 [Compound 14, 2-(3-(4-(6-fluorobenzo[d]isoxazol-3-yl)piperidin-1-yl)propylthio)-5-(4-methoxyphenyl)-1,3,4-oxadiazole]

Ki ([1]; [3H]8-OH-DPAT, rat brain cortex, mean of three experiments, >10000 marked b: Ki not calculated, inhibition at 10 µM too low): 10.5 ± 1.2 nM | Ki ([2]; [3H]ketanserin, rat brain cortex, mean of three experiments, >10000 marked b: Ki not calculated, inhibition at 10 µM too low): 6.6 ± 0.8 nM | Ki [3]: 502 ± 56.2 nM | Ki (histamine H1 receptor; [3H]pyrilamine, guinea pig cerebellum, mean of three experiments, >10000 marked b: Ki not calculated, inhibition at 10 µM too low): 18.9 ± 2.1 nM | Ki (dopamine D2 receptor; [3H]spiperone, rat striatum, mean of three experiments, >10000 marked b: Ki not calculated, inhibition at 10 µM too low): 18.3 ± 1.6 nM | Ki (dopamine D3 receptor): 15.5 ± 1.9 nM
Structure (SMILES): Fc1ccc2c(C3CCN(CCCSc4nnc(-c5ccc(Cl)cc5)o4)CC3)noc2c1 [Compound 16, 2-(3-(4-(6-fluorobenzo[d]isoxazol-3-yl)piperidin-1-yl)propylthio)-5-(4-chlorophenyl)-1,3,4-oxadiazole]

Structure (SMILES): CN1CCN(C2=Nc3cc(Cl)ccc3Nc3ccccc32)CC1 [clozapine]
ED50 [4]: 7.99 mg/kg | ED50 [5]: 5.06 mg/kg | ED50 (in vivo): 92.7 mg/kg

ED50 (in vivo): 0.22 mg/kg
Structure (SMILES): O=C(CCCN1CCC(O)(c2ccc(Cl)cc2)CC1)c1ccc(F)cc1 [haloperidol]
ED50 [4]: 0.09 mg/kg | ED50 [5]: 0.19 mg/kg
